# Where two headings read alike, the source gives them in different places.
# Key:
# [1] = system: dopamine cells in the VTA; assay: In vivo assessment of dopamine neuron firing in rat ventral tegmental area
# Description: In vivo assessment of dopamine neuron firing in rat ventral tegmental area was conducted as described by Schilstrom et al. (Neuroscience 125:957-64, 2004). Briefly, male Sprague Dawley rats (250-300 g) were anesthetized with chloral hydrate (400 mg/kg i.p.) and mounted in a stereotactic frame. Anesthesia was maintained throughout the experiment with periodical injections of chloral hydrate and body temperature was kept at 37° C. with a rectal thermometer connected to an electrical heating pad. Recording electrodes were pulled in a Narishige vertical puller from borosilicate glass capillaries with outer and inner diameters of 1.50 and 1.17 mm, respectively, and filled with 2% Pontamine Sky Blue in 2 M NaCl. […] The rat was killed with an overdose of anesthetic, and the brain was removed and placed in 25% sucrose 10% paraformaldehyde solution. Sections of the VTA were cut ([…]) and stained with Neutral Red and the recording sites were verified by light microscopy.
# [2] = system: mesocorticolimbic dopaminergic neurons in the VTA; settings: cited from earlier work; for firing rate of mesocorticolimbic dopaminergic neurons in the VTA: Prisco and Eposito 1995, Di Masico et al 1998
# [3] = system: NMDA-induced currents in pyramidal cells of the medial prefrontal cortex; assay: Facilitation of NMDA-induced currents in pyramidal cells of the medial prefrontal cortex in vitro (brain slices, voltage-clamp); type: cell-based, rat
smiles,measurement,setting,value
CN(C)CCCC1(c2ccc(F)cc2)OCc2cc(C#N)ccc21 (racemic) [citalopram],Emax,"[1]; Rattus norvegicus, Neuron, FIG. 2, read-out: maximal response, burst difference",~10%
CN(C)CCC[C@]1(c2ccc(F)cc2)OCc2cc(C#N)ccc21 [R-citalopram],effect on the escitalopram-induced increase of burst firing,"[1]; 320 μg/kg with escitalopram 320 μg/kg, FIG. 2",significantly inhibits the effect of escitalopram
same,effect on firing rate of dopamine cells in the VTA,"[1]; given alone, dose not stated, FIG. 1",unaffected
same,effect on burst firing of dopaminergic cells in the VTA,"[1]; given alone, FIG. 2",no effect on burst firing
same,effect on the escitalopram-induced increase of firing rate,"[1]; pre-treatment with 320 μg/kg before escitalopram 320 μg/kg, FIG. 1",blocked
"CN(C)CCC[C@@]1(c2ccc(F)cc2)OCc2cc(C#N)ccc21 [escitalopram, (S)-1-[3-(dimethylamino)propyl]-1-(4-fluorophenyl)-1,3-dihydro-5-isobenzofurancarbonitrile]",effect on firing rate of dopamine cells in the VTA,"[1]; 320 μg/kg, FIG. 1",elevates firing rate statistically significant
same,effect on burst firing of dopaminergic cells in the VTA,"[1]; doses equal to and above 160 μg/kg, FIG. 2",increases burst firing statistically significant dose-dependently
same,effect on firing rate of dopamine cells in the VTA,"[1]; higher dose 640 μg/kg, FIG. 1",appears to be maintained
same,burst difference,"[1]; highest dose tested 640 μg/kg, FIG. 2",about 20%
CNCCC(Oc1ccc(C(F)(F)F)cc1)c1ccccc1 (stereo not shown) [fluoxetine],firing rate of mesocorticolimbic dopaminergic neurons in the VTA,[2],slight inhibition
COCCCC/C(=N\OCCN)c1ccc(C(F)(F)F)cc1 [fluvoxamine],firing rate of mesocorticolimbic dopaminergic neurons in the VTA,[2],slight inhibition
Fc1ccc([C@@H]2CCNC[C@H]2COc2ccc3c(c2)OCO3)cc1 [paroxetine],firing rate of mesocorticolimbic dopaminergic neurons in the VTA,[2],slight inhibition
CCOc1ccccc1OC(c1ccccc1)C1CNCCO1 (stereo not shown) [reboxetine],effect on NMDA-induced currents in pyramidal cells of the prefrontal cortex,[3],increases NMDA-induced currents
same,excitability and burst firing of dopaminergic neurons in the VTA,"[2]; Linner et al, 2001",enhances the excitability of dopaminergic neurons in the VTA with a preferential activation of their burst firing mode
Cc1nc2n(c(=O)c1CCN1CCC(c3noc4cc(F)ccc34)CC1)CCCC2 [risperidone],effect on NMDA-induced currents in pyramidal cells of the prefrontal cortex,"[3]; bath application, holding potential −60 mV, FIG. 3",increase NMDA-induced currents
CN[C@H]1CC[C@@H](c2ccc(Cl)c(Cl)c2)c2ccccc21 [sertraline],firing rate of mesocorticolimbic dopaminergic neurons in the VTA,[2],slight inhibition
